Here are results for seven compounds from patent US8222260B2, “Substituted 6-anilinopurine derivatives as inhibitors of cytokinin oxidase/dehydrogenase and preparations containing these derivatives” (Univerzita Palackego V Olomouci, priority 2007, dated 2012).

Each structure is given as a SMILES string. Read-outs that look alike come from different tables or passages of the source. Bounds are passed on as bounds.

By GI50 is commonly meant the concentration that inhibits growth by half. In general, EC50 refers to the concentration giving half of the maximal effect. Low readings indicate an effect from little substance, high ones a need for much substance.

For test [1], the system named is osteosarcoma cell line HOS. The experiment in a line: Calcein AM cytotoxicity assay. The format is cell-based, human. The following applies: 72 hours. The text has this:
(§1) Absence of toxic effects against mammalian (especially human) cell lines in a wide concentration range is one of the requirements on compounds intended for use in agriculture and medicine. Because toxic compounds negatively influence metabolic processes in cells, many standard cytotoxicity assays are based on measurement of metabolisation rate of various artificial substrates. Resulting product is then quantified e.g. by means of spectrometry. The assays can be easily modified for use in 96-well plates. For evaluation of cytotoxic effect of compounds of this invention, a microtiter assay based on quantification of metabolisation of Calcein AM was used. The assay is widely used in drug screening programs and in chemosensitivity testing. In live cells, Calcein AM is enzymatically hydrolysed and accumulation of resulting calcein is manifested by green fluorescence.
Following human cell lines were used for routine screening of the compounds: T-lymphoblastic leukemia cell line CEM, promyelocytic leukemia cell line HL-60, erytroid leukemia cell line K-562, breast carcinoma cell line MCF-7, osteosarcoma cell line HOS and melanoma cell line G-361. Mouse cell lines B16-F10 (melanoma) and NIH-3T3 (fibroblasts) were used as well. The cells were maintained in Nunc/Corning 80 cm^2 plastic tissue culture flasks and cultured in cell culture medium (DMEM with 5 g/l glucose, 2 mM glutamine, 100 U/ml penicillin, 100 μg/ml streptomycin, 10% fetal calf serum and sodium bicarbonate).
(§2) The cell suspensions were prepared and diluted according to the particular cell type and the expected target cell density (2.500-30.000 cells per well based on cell growth characteristics) and pippetted (80 μl) into 96-well plates. Inoculates were allowed a pre-incubation period of 24 hours at 37° C. and 5% CO2 for stabilisation. Tested compound was added in total volume of 20 μl of water at time zero. Usually, test compound was evaluated at six 3-fold dilutions. In routine testing, the highest concentration tested was 166.6 μM. All drug concentrations were tested in triplicates. Incubations of cells with the test compounds lasted for 72 hours at 37° C., in 5% CO2 atmosphere and 100% humidity. At the end of incubation period Calcein AM in PBS was added into final concentration of 1 μg/ml. After another 1 hour of incubation fluorescence (FD) was measured with the Labsystem FIA Reader Fluoroscan Ascent (UK). Growth inhibition (GI) was estimated using the following equitation: GI=(mean FDdrug exposed wells−mean FDblank)/(mean FDcontrol wells−mean FDblank)×100%. The GI50 value, the drug concentration causing 50% reduction of Calcein AM conversion, was calculated from the obtained dose response curves.

Test [2] has as its system breast carcinoma cell line MCF-7. The experiment in a line: Calcein AM cytotoxicity assay. The class given is cell-based, human.
From the text: as §1
(§3) Mouse cell lines B16-F10 (melanoma) and NIH-3T3 (fibroblasts) were used as well. The cells were maintained in Nunc/Corning 80 cm^2 plastic tissue culture flasks and cultured in cell culture medium (DMEM with 5 g/l glucose, 2 mM glutamine, 100 U/ml penicillin, 100 μg/ml streptomycin, 10% fetal calf serum and sodium bicarbonate).
as §2, with “In routine testing, the highest concentration tested was 166.6 μM.” left out, “FDblank)×100%.” for “FDblank)×100%. The GI50 value, the drug concentration causing 50% reduction of Calcein AM conversion, was calculated from the obtained dose response curves.”

Test [3] addresses T1, AHK3 (Arabidopsis thaliana, UniProt Q9C5U1).
T1 sequence (Q9C5U1 1-1036): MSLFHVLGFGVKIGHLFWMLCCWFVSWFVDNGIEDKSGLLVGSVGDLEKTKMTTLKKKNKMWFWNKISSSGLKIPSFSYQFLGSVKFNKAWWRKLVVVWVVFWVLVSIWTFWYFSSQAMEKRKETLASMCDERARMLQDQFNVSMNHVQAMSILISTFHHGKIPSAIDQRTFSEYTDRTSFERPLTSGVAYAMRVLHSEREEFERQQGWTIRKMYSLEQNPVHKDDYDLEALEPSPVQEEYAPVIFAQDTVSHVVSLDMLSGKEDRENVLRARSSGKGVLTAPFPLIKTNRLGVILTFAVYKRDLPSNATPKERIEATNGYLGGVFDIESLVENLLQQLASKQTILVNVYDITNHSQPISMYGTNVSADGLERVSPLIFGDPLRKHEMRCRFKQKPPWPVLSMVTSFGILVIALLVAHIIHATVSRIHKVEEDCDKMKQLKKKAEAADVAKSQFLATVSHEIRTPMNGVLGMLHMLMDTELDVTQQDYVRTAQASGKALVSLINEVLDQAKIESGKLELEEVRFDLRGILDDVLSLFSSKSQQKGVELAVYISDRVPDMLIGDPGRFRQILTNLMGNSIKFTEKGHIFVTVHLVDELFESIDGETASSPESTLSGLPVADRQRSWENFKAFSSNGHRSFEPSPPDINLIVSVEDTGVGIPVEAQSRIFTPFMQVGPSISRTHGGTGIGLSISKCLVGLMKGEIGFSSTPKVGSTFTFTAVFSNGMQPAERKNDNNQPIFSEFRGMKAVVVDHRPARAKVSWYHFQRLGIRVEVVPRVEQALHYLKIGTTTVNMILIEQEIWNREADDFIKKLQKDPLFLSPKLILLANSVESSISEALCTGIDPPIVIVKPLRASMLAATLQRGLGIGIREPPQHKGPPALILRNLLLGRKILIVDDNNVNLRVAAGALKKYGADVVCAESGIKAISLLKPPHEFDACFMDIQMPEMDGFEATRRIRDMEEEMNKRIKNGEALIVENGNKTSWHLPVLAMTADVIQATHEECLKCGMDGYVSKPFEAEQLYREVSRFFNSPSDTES
Kind of test: Activation of cytokinin receptors (E. coli KMI001 beta-galactosidase reporter). The following applies: 28 h incubation; n.a. means no activation. The class given is cell-based. As to the method: Escherichia coli strains KMI001 harbouring the plasmid […]4 or […]3 were grown overnight at 25° C. in M9 media enriched with 0.1% casamino acids to OD600 1. The preculture was diluted 1:600 in 1 ml M9 medium containing 0.1% casamino acids and 1 μl stock solution of either the tested compound (10^-7 M-5×10^-5 M) or solvent control (DMSO, ethanol, methanol) were added. The cultures were further grown at 25° C. in microtiter plate, 200 μl per well. […] The cultures were centrifuged and 50 μl aliquots of the supernatant were transferred to microtiter plate containing 2 μl 150 mM 4-methyl umbelliferyl galactoside which was subsequently incubated for 1 h at 37° C. The reaction was stopped by adding 100 μl 0.2 M Na2CO3. […] The EC50 value, the compound concentration activating the receptor to 50%, was calculated from the obtained dose response curves. The values shown in Table 10 are means of three replicates and the entire test was repeated at least twice.

Test [4] has as its system NIH-3T3 (fibroblasts). Kind of test: Calcein AM cytotoxicity assay. The format is cell-based, Mouse.
From the text: as §1, §3
as §2, with “In routine testing, the highest concentration tested was 166.6 μM.” left out, “FDblank)×100%.” for “FDblank)×100%. The GI50 value, the drug concentration causing 50% reduction of Calcein AM conversion, was calculated from the obtained dose response curves.”

The test system of test [5] is Amaranthus caudatus cotyledon/hypocotyl explants. The experiment in a line: Amaranthus bioassay (betacyanin content). The following applies: for Activity (%) [10^−5 mol · l^−1 K = 100%]: at the concentration with highest activity, relative to 10^−5 M kinetin. The format is cell-based, Amaranthus caudatus var. atropurpurea. Here is the method: The standard Amaranthus bioassay was performed with the following modifications. The seeds of Amaranthus caudatus var. atropurpurea were surface-sterilised in 10% (w/v) N-chlorobenzenesulfonamide for 10 min and washed 5 times with deionized water. They were placed in 15 cm Petri dishes containing paper tissues saturated with deionized water. After 72 h of cultivation at 25° C. in darkness, the roots of the seedlings were cut off. The explants, consisting of two cotyledons and hypocotyls, were placed in 5 cm Petri dishes onto two layers of filtration paper soaked with 1 ml of the incubation medium containing 10 μmol of Na2HPO4—KH2PO4, pH 6.8, 5 μmol of tyrosine and the compound to be tested. There were 20 explants per dish. The procedure was carried out under green safe light in a darkroom. After 48 h of incubation at 25° C. in darkness, betacyanin was extracted by freezing the explants in 4 ml 3.33 μM acetic acid. The concentration of betacyanin was determined from the absorbances at 537 nm and 620 nm as follows: ΔA=A537nm−A620nm. The values ΔA were plotted against the concentration tested, are means of five replicates and the entire test was repeated at least twice. […] The compounds to be tested were dissolved in dimethylsulfoxide (DMSO) and the solution brought up to 10^−3M with distilled water.
From the obtained data, the concentration with the highest activity was selected for each compound tested. Relative activity of the compound at this concentration was calculated (Tab. 12). The activity obtained for 10^−5 M kinetin (K) was postulated as 100%.

Test [6] has as its system cytokinin-dependent tobacco callus Nicotiana tabacum L. cv. Wisconsin 38. The experiment in a line: Tobacco callus biotest (plant cell division). The class given is cell-based. Here is the method:
The stimulatory effect of the newly prepared derivatives was tested in the calus biotest using cytokinin-dependent tobacco callus. Cytokinin-dependent tobacco callus Nicotiana tabacum L. cv. Wisconsin 38 was maintained at 25° C. in darkness on modified Murashige-Skoog medium, containing per 1 liter: 4 μmol of nicotinic acid, 2.4 μmol of pyridoxine hydrochloride, 1.2 μmol of thiamine, 26.6 μmol of glycine, 1.37 μmol of glutamine, 1.8 μmol of myo-inositol, 30 g of sucrose, 8 g of agar, 5.37 μmol of NAA and 0.5 μmol of 6-benzylaminopurine. Subcultivation was carried out every three weeks. Fourteen days before the bioassay, the callus tissue was transferred to the media without 6-benzylaminopurine. The biological activity was determined from the increase of the fresh callus weight after four weeks of cultivation. Five replicates were prepared for each concentration of the compound tested and the entire test was repeated twice. […] The compounds to be tested were dissolved in dimethylsulfoxide (DMSO) and the solution brought up to 10^−3 M with distilled water.
From the obtained data, the concentration with the highest activity was selected for each compound tested. Relative activity of the compound at this concentration was calculated (Table 11). The activity obtained for 10^−5 M of the control substance kinetin (K) was postulated as 100%.

On to `Nc1nc(Nc2ccccc2)c2nc[nH]c2n1` [Compound 64], for which the concentration for 50% growth inhibition (GI50) in test [1] (Homo sapiens) was greater than 167 µM; in test [2] (Homo sapiens, MCF7, 72 hours), greater than 167 µM; in test [4] (Mus musculus, NIH3T3, 72 hours), greater than 167 µM. This compound came in with an EC50 in test [3] of 25.3 µM. The “Activity (%) [10^−5 mol · l^−1 K = 100%]” value in test [5] came to 125.2%.

With `Sc1nc(Nc2ccccc2)c2nc[nH]c2n1` [Compound 78, 2-Thio-6-anilinopurine], the GI50 is greater than 167 µM in test [1]; greater than 167 µM in test [2] (72 hours, read-out: GI50 MCF7); greater than 167 µM in test [4] (72 hours).

As to `COc1ccccc1Nc1nc(S)nc2nc[nH]c12` [Compound 87], the 50% growth inhibitory concentration (GI50) in test [1] was greater than 167 µM; in test [2] (72 hours, read-out: GI50 MCF7), greater than 167 µM; in test [4] (72 hours), greater than 167 µM.

Turning to `CSc1nc(Nc2ccccc2)c2[nH]cnc2n1` [Compound 94, 2-Methylthio-6-anilinopurine], the GI50 in test [1] (Homo sapiens) was greater than 167 µM; in test [2] (Homo sapiens, MCF7, 72 hours), greater than 167 µM; in test [4] (Mus musculus, NIH3T3, 72 hours), greater than 167 µM.

As for `CSc1nc(Nc2cccc(O)c2)c2nc[nH]c2n1` [Compound 101], the concentration for 50% growth inhibition (GI50) in test [1] was greater than 167 µM; in test [2] (72 hours, read-out: GI50 MCF7) it was greater than 167 µM; in test [4] (72 hours), greater than 167 µM.

Regarding `COc1cccc(Nc2nc(SC)nc3[nH]cnc23)c1` [Compound 103], the GI50 was greater than 167 µM in test [1]; greater than 167 µM in test [2] (72 hours, read-out: GI50 MCF7); greater than 167 µM in test [4] (72 hours). The “Activity (%) [10^−5 mol · l^−1 K = 100%]” value in test [6] (at the concentration with highest activity, relative to 10^−5 M kinetin) came out at 142.8%; in test [5] it was 156.4%. Besides, the “concentration with highest activity” value in test [6] (fresh weight after four weeks) and in test [5] (48 h) was 10^−5 mol · l^−1 throughout.

As for `Cc1nc(Nc2cccc(O)c2)c2nc[nH]c2n1` [Compound 116], the GI50 in test [1] is greater than 167 µM; in test [2] (72 hours, read-out: GI50 MCF7), greater than 167 µM; in test [4] (72 hours) it was greater than 167 µM.
